{"source": "ChEMBL document CHEMBL1139555", "about": "“Discovery of potent and selective phenylalanine based dipeptidyl peptidase IV inhibitors” (Bioorg Med Chem Lett, 2005)", "key": {"Dipeptidyl peptidase 2": {"target": "Dipeptidyl peptidase 2 (Homo sapiens, UniProt Q9UHL4)"}, "[1]": {"assay": "Plasma cearance of compound was determined in rat", "assay_type": "ADME, organism-based", "conditions": "read-out: Clp"}, "[2]": {"assay": "Plasma half-life of compound was determined in rat", "assay_type": "ADME, cell-free"}, "[3]": {"assay": "Oral bioavailability in rat", "assay_type": "ADME, organism-based", "conditions": "in vivo"}, "Dipeptidyl peptidase 9": {"target": "Dipeptidyl peptidase 9 (Homo sapiens, UniProt Q86TI2)", "sequence (Q86TI2 whole entry)": "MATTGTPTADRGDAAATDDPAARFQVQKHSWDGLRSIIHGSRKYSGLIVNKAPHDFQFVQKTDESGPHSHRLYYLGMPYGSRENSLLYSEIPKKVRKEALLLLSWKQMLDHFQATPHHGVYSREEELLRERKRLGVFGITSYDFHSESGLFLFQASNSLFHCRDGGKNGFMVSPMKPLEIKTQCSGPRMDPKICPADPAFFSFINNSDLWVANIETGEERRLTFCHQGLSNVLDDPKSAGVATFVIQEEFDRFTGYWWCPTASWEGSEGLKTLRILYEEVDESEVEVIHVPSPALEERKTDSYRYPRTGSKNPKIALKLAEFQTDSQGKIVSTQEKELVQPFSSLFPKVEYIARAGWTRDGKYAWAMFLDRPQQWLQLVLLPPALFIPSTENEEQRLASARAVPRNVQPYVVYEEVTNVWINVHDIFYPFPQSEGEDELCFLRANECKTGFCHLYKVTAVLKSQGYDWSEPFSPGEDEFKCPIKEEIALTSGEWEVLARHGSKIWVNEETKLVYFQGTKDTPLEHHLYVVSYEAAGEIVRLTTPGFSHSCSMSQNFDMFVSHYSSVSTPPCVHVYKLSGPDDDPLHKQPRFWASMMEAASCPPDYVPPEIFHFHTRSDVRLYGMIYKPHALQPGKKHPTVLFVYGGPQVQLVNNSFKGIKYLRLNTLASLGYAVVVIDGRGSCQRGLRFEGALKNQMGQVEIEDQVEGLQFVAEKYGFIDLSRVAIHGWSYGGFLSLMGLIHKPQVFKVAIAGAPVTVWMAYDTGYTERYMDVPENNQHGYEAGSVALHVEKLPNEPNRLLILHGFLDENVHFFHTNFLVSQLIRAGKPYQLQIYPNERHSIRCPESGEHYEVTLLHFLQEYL"}, "Dipeptidyl peptidase 8": {"target": "Dipeptidyl peptidase 8 (Homo sapiens, UniProt Q6V1X1)", "sequence (Q6V1X1 whole entry)": "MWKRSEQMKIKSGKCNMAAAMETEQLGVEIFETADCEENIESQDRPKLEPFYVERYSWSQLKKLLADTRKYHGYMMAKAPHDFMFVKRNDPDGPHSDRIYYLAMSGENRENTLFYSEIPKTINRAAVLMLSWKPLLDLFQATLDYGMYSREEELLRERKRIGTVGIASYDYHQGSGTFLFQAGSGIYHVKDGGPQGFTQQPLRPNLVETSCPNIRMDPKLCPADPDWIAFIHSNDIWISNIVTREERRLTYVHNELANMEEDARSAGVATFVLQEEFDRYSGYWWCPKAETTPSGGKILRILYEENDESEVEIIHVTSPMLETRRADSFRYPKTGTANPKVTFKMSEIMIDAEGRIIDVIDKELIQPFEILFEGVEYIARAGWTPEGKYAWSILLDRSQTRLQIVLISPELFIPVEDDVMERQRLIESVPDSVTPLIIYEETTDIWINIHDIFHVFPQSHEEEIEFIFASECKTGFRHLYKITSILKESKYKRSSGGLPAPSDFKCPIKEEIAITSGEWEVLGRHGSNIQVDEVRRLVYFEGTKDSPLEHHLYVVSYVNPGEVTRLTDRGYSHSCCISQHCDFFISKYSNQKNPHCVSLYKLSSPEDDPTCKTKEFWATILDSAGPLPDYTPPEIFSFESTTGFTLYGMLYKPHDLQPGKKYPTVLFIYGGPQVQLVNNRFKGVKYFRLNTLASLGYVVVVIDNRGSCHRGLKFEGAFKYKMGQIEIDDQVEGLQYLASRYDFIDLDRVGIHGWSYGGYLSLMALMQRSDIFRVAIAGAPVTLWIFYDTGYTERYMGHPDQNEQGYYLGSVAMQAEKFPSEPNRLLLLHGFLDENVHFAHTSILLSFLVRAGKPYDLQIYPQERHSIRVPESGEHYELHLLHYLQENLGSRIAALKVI"}, "Dipeptidyl peptidase 4": {"target": "Dipeptidyl peptidase 4 (Homo sapiens, UniProt P27487)", "sequence (P27487 whole entry)": "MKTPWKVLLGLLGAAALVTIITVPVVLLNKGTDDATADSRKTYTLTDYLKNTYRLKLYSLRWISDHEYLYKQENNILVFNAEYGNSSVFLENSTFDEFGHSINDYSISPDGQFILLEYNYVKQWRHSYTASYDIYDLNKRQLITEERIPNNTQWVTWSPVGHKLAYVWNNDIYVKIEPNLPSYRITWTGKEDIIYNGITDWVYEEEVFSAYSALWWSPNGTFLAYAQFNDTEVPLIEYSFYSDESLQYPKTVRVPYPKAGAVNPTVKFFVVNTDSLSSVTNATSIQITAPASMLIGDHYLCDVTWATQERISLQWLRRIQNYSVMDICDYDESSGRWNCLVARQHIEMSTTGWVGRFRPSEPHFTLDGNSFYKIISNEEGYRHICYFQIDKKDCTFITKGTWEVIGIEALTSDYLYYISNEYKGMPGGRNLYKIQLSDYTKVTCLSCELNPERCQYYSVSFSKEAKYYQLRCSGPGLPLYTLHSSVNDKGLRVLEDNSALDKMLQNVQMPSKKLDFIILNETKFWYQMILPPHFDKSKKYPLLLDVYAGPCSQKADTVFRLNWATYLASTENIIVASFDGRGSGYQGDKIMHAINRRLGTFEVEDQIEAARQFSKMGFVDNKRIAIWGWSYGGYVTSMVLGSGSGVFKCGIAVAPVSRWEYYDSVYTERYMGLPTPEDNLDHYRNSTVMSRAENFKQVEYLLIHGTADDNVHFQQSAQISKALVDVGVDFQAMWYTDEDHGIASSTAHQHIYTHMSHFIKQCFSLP"}, "[4]": {"target": "Voltage-gated inwardly rectifying potassium channel KCNH2 (Homo sapiens, UniProt Q12809)", "sequence (Q12809 whole entry)": "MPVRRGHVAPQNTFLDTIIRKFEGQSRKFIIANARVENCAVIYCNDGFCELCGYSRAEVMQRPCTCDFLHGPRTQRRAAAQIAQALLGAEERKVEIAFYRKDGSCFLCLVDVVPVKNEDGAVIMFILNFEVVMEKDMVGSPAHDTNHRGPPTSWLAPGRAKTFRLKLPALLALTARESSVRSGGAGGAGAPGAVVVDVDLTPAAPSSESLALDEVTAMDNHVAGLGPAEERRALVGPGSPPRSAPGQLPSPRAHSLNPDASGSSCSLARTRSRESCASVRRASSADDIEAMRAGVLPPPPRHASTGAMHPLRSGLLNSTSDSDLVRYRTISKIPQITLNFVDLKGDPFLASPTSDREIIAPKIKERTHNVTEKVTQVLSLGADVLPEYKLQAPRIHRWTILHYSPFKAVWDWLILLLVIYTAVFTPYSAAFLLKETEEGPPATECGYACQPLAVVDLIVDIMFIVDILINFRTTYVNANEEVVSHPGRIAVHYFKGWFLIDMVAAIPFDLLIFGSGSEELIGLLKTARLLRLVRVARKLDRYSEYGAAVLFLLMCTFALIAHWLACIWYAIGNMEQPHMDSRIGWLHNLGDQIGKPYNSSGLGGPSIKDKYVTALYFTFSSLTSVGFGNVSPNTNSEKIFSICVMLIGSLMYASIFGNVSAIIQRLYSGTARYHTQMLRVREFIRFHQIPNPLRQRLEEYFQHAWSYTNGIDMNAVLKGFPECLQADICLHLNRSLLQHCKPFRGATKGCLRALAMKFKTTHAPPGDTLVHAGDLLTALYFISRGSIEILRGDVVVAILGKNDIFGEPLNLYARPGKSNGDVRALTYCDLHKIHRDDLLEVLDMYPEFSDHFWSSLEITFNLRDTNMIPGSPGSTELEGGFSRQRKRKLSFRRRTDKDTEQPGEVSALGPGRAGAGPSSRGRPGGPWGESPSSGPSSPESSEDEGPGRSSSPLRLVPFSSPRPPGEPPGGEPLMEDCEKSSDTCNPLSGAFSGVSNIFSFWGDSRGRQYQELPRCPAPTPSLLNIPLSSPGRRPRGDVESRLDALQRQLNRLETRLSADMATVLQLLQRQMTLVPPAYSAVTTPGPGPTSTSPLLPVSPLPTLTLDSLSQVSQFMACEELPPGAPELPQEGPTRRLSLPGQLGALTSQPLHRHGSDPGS"}}, "data": [{"smiles": "C[C@@H](c1ccc(-c2cccc(C(=O)O)c2)cc1)[C@H](N)C(=O)N1CC[C@H](F)C1.O=C(O)C(F)(F)F", "values": [{"measurement": "IC50", "setting": "Dipeptidyl peptidase 2", "value": 9.2, "unit": "µM"}, {"measurement": "clearance", "setting": "[1]", "value": 50.8, "unit": "mL/min/kg"}, {"measurement": "half-life", "setting": "[2]", "value": 24, "unit": "min"}, {"measurement": "bioavailability", "setting": "[3]", "value": 2.3, "unit": "%"}, {"measurement": "IC50", "setting": "Dipeptidyl peptidase 9", "value": "> 100", "unit": "µM"}, {"measurement": "IC50", "setting": "Dipeptidyl peptidase 8", "value": "> 100", "unit": "µM"}, {"measurement": "IC50", "setting": "Dipeptidyl peptidase 4", "value": 0.056, "unit": "µM"}]}, {"smiles": "C[C@@H](c1ccc(-c2cccc(-c3noc(O)n3)c2)cc1)[C@H](N)C(=O)N1CC[C@H](F)C1.O=C(O)C(F)(F)F", "values": [{"measurement": "IC50", "setting": "Dipeptidyl peptidase 2", "value": 1.1, "unit": "µM"}, {"measurement": "clearance", "setting": "[1]", "value": 23.9, "unit": "mL/min/kg"}, {"measurement": "half-life", "setting": "[2]", "value": 66, "unit": "min"}, {"measurement": "bioavailability", "setting": "[3]", "value": 4.2, "unit": "%"}, {"measurement": "IC50", "setting": "Dipeptidyl peptidase 9", "value": "> 100", "unit": "µM"}, {"measurement": "IC50", "setting": "Dipeptidyl peptidase 8", "value": "> 100", "unit": "µM"}, {"measurement": "IC50", "setting": "Dipeptidyl peptidase 4", "value": 0.003, "unit": "µM"}, {"measurement": "IC50", "setting": "[4]", "value": 28, "unit": "µM"}]}]}
